pIC50: −log10 of the molar value. Entries after “also recorded” stand apart in the source; their conditions may differ.

Test [1] relates to Abca4−/−Rdh8−/− (dKO) mice. Nature of the test: SLO and OCT imaging of bright light-induced retinal damage. The format is in vivo, mouse. The conditions noted are these: 60 mg/kg bw intraperitoneal, 7 d after photobleaching. From the text:
Male and female Abca4^−/−Rdh8^−/− mice at 6 to 8 weeks of age were used for the current study. These mice were maintained on a pigmented C57BL/6 background, and age-matched C57BL/6 mice from The Jackson Laboratory were used as wild-type controls. All mice were housed and maintained in a 12-hour light (≤150 lux)/12-hour dark cyclic environment in the University Laboratory Animal Resources center at the University of California, Irvine (UCI) School of Medicine. Bright light-induced retinal damage was generated by exposing photosensitive Abca4^−/−Rdh8^−/− mice to white light delivered at 10,000 lux (150-W spiral lamp, Commercial Electric, Cleveland, OH) for 30 min. Mice were dark-adapted 24 h prior to photobleaching, and pupils were dilated with 1% ophthalmic tropicamide 30 min prior to light exposure. […]
Mice were anesthetized by intraperitoneal injection of ketamine (20 mg/mL) with xylazine (1.75 mg/mL) at a dose of 5 μL/g bw, and pupils were dilated with 1% tropicamide prior to imaging. […] For quantitative measurements of photoreceptor viability, ONL thickness was measured in the InVivoVue software at a distance of 0.45 mm from the optic nerve head in the temporal retina, where the most severe damage is found in bright light-exposed Abca4^−/−Rdh8^−/− mice. […]

The subject of another test is HDAC4, 5, 6, 7, and 8. The conditions noted are these: cited from earlier work.
A further test has as its system H3K27ac. The test is described as follows: Quantitative Western blot of H3K27ac (euchromatin) in retina of photobleached dKO mice. The format is in vivo, mouse. The settings on record: 60 mg/kg bw intraperitoneal 30 min prior to light exposure, 1 d post-bleach. The source says:
(§1) Male and female Abca4^−/−Rdh8^−/− mice at 6 to 8 weeks of age were used for the current study. These mice were maintained on a pigmented C57BL/6 background, and age-matched C57BL/6 mice from The Jackson Laboratory were used as wild-type controls. All mice were housed and maintained in a 12-hour light (≤150 lux)/12-hour dark cyclic environment in the University Laboratory Animal Resources center at the University of California, Irvine (UCI) School of Medicine. Bright light-induced retinal damage was generated by exposing photosensitive Abca4^−/−Rdh8^−/− mice to white light delivered at 10,000 lux (150-W spiral lamp, Commercial Electric, Cleveland, OH) for 30 min. Mice were dark-adapted 24 h prior to photobleaching, and pupils were dilated with 1% ophthalmic tropicamide 30 min prior to light exposure. […] All animal handling procedures and experimental protocols were approved by the Institutional Animal Care and Use Committee at UCI and conformed to recommendations of both the American Veterinary Medical Association (AVMA) Panel on Euthanasia and the Association for Research in Vision and Ophthalmology.
(§2) Fresh retina and RPE were harvested from study mice as described previously. […] The blots were imaged, and IR signals were quantified using a LI-COR Odyssey Fc imaging system.
A general note: A western blot detects proteins with antibodies after separation by electrophoresis.

The test system of test [2] is H3K9me3. Nature of the test: Immunohistochemistry of H3K9me3 in retinal cross-sections of photobleached dKO mice. In kind it is in vivo, mouse. The conditions noted are these: 60 mg/kg bw intraperitoneal, 1 d after photobleaching, vs DMSO vehicle.
Description: as §1
Mice were euthanized in a CO2 chamber prior to enucleation. […] Fluorescence microscopy images were obtained on a Keyence BZ-X810 fluorescent microscope.

For test [3], the system named is H3K9me3. The test is described as follows: Quantitative Western blot of H3K9me3 (heterochromatin) in RPE/choroid of bleached dKO mice. The format is in vivo, mouse. The conditions noted are these: 60 mg/kg bw intraperitoneal 30 min prior to light exposure, 1 d post-bleach.
Description: as §1, §2

For another test, the system named is HDAC. The settings on record: with exception for HDAC6; read-out: IC50 pan-HDAC; cited from earlier work.
The subject of the next test is HDACs 6 and 7. The settings on record: cited from earlier work.
The subject of the next test is HDACs 2, 4, 10, and 11. The settings on record: cited from earlier work.
Another test addresses T1, HDAC11 (Homo sapiens, UniProt Q96DB2).
T1 sequence (Q96DB2 1-347): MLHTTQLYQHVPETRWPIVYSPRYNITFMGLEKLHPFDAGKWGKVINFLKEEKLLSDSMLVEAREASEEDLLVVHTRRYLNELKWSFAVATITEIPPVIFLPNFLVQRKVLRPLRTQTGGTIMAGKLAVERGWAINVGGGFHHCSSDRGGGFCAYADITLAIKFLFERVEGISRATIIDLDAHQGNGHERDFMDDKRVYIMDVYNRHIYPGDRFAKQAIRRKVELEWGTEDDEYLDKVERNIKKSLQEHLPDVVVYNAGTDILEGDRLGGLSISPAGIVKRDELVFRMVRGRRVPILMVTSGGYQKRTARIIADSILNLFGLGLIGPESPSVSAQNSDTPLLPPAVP
The conditions noted are these: mammalian HDAC11; cited from earlier work.

The test system of a further test is other HDACs. The conditions noted are these: cited from earlier work.
Test [4] deals with HDAC11 substrate, serine hydroxymethyl transferase 2. The settings on record: cited from earlier work.

As to `Nc1ccccc1NC(=O)c1ccc(CNc2nccc(-c3cccnc3)n2)cc1` [Mocetinostat], the “Stress-induced retinal pathology by SLO and OCT (ONL thickness)” value in [1] is given as “sufficient to ameliorate stress-induced retinal pathology; also recorded: ameliorated”. Further, the “Activity to HDAC4, 5, 6, 7, and 8” value in the test with HDAC4, 5, 6, 7, and 8 was “no activity”. In the test with H3K27ac, the “Euchromatin abundance (H3K27ac) in retina” value is on record as “rescues the stress-induced reduction in euchromatin abundance”.
With `COc1cc(OC)c(-c2cn3ccc(N4CC[C@H](NCc5ccncc5)C4)cc3n2)cc1Cl` [OTS186935, (S)-1-(2-(5-chloro-2,4-dimethoxyphenyl)imidazo[1,2-a]pyridin-7-yl)-N-(pyridin-4-ylmethyl)pyrrolidin-3-amine], the “Stress-induced retinal pathology by SLO and OCT (ONL thickness)” value in test [1] is reported as “sufficient to ameliorate stress-induced retinal pathology; also recorded: ameliorated”. Besides, in the test on H3K9me3 [2], the “H3K9me3 signal in retinal cross-sections (immunohistochemistry)” value is “attenuated”. Moreover, the “Heterochromatin abundance (H3K9me3) in RPE/choroid” value in the test on H3K9me3 [3] was “attenuates the stress-induced increase in heterochromatin abundance”.
Regarding `CCCCc1nc2cc(/C=C/C(=O)NO)ccc2n1CCN(CC)CC` [Pracinostat], the pIC50 with HDAC is 6.85 to 7.40.
`Cn1cc(CNCC2CCN(c3ncc(C(=O)NO)cn3)CC2)c2ccccc21` [Quisinostat]: the “Potency to HDACs 6 and 7” value in the test with HDACs 6 and 7 is reported as “lowest potency”. The “Potency to HDACs 2, 4, 10, and 11” value in the test with HDACs 2, 4, 10, and 11 is “modest potent”.
`CCCCCCCCCCCCCCCCNNC(=O)c1cccs1` [SIS17]: on HDAC11, the pIC50 was 6.08. The “Inhibition of other HDACs” value with other HDACs is given as “without inhibiting other HDACs”. In addition, the “Demyristoylation of serine hydroxymethyl transferase 2” value in test [4] is recorded as “inhibits the demyristoylation”.

The term pIC50 denotes the negative decadic logarithm of the IC50, by convention in mol/L.

The record behind these values is patent US12708616B2, “Compositions and methods of treating age-related retinal dysfunction” (THE REGENTS OF THE UNIVERSITY OF CALIFORNIA, priority 2020, dated 2026).
